In patent publication US20060217340A1, “Methods and products for treating hypertension by modulation of TRPC3 channel activity” (University of Vermont and State Agricultural College, priority 2005, published 2006):

Experiments:
[1] = tested on: smooth muscle cells isolated from sense- or antisense-treated cerebral arteries; test: Perforated patch clamp, UTP-activated whole-cell current; type: cell-based, rat; conditions: 30 μM UTP
Protocol: Patch clamp electrophysiology. Single smooth muscle cells were enzymatically isolated from sense- or antisense-treated cerebral arteries using an isolation solution of the following composition (in mM): 60 NaCl, 58 sodium glutamate, 5.6 KCl, 2 MgCl2, 10 glucose, 0.1 CaCl2, 10 HEPES (pH 7.4) with 0.5 mg/ml papain, and 1 mg/ml dithioerythritol added. After 10 minutes, arterial segments were placed in a second isolation solution containing 0.1 mM CaCl2 and a collagenase type F and hyaluronidase mixture (1 mg/ml each). Trituration was performed with a polished wide-bore pipette and the cells were stored on ice and used the same day. Whole cell ionic currents were measured using the perforated patch method in the presence or absence of 30 μM UTP. Recording electrodes (4-7 MΩ resistance) were pulled from borosilicate glass. Plated cells were voltage clamped and held at −60 mV for 15 minutes prior to experimentation; whole cell currents were monitored while voltage was slowly ramped (−120 to +20 mV, 0.167 mV/ms); currents were not leak subtracted. The bath solution contained (in mM): 120 NaCl, 1.2 MgCl2, 1.8 CaCl2, 10 HEPES (pH 7.4), and 10 glucose. The pipette solution contained (in mM): 120 CsCl, 3 MgCl2, 0.1 EGTA, 10 HEPES (pH 7.2), 10 glucose and 200 μg/ml amphotericin B. A series resistance of approximately 40 MΩ was accepted for all perforated patch clamp experiments. Membrane currents were filtered at 1 kHz, digitized at 5 kHz and stored in a personal computer system for subsequent analysis. pClamp 8.1 and Clampfit 8.1 (Axon Instruments) were used to record and analyze membrane currents. Cell capacitance was measured with the cancellation circuitry of the voltage-clamp amplifier (Axopatch 200A amplifier, Axon Instruments, Sunnyvale, Calif., USA). All current recordings were performed at room temperature (22° C.).

[2] = tested on: TRPC6; test: Western analysis of TRPC6 protein expression in arteries; type: cell-based, rat; conditions: cerebral arterial SMCs
Protocol: Western Analysis. Arterial segments were homogenized in lysis buffer (5 minutes, 4° C.) containing (in mM): 40 CAPS, 1 DL-Dithiothreitol (DTT), 10 EDTA, 15 MgCl2, 115 NaCl, 1 NaOrthovanadate, 1 NaF, 2.5 Urea, and 0.25% deoxychlorate, 10% glycerol, 1% NP-40, 0.2% SDS, and 1:50 mammalian protease inhibitor cocktail (Sigma, St. Louis, Mo., USA). Equal amounts of sample protein were separated on a 10% polyacrylamide gel and transferred to a nitrocellulose membrane. The membranes were exposed to a TRPC3 or TRPC6 polyclonal antibody (anti-rabbit 1:200 dilution, Alomone Labs, Jerusalem, Israel) and a […] (GAPDH) monoclonal antibody (anti-mouse, 1:1000 dilution, Chemicon Labs, Temecula, Calif., USA). Alexa-Fluor 680® goat anti-rabbit (Molecular Probes, Eugene, Oreg., USA) and IRDyeTM800 anti-mouse (Rockland Immunochemicals, Gilbertsville, Pa., USA) were used to fluorescently label the TRPC3 and GAPDH antibodies respectively. The density of signals specific for the TRPC3 and GAPDH bands in a given lane on a membrane were measured after scanning the membrane with an Odyssey® infared imaging system (Li-COR Biosciences, Lincoln, Nebr., USA). Quantified amounts were normalized to a total protein amount lane on the polyacrylamide gel.
Oligodeoxynucleotide Sequences and Reverse Permeabilization. […]

[3] = tested on: pressurized rat cerebral arteries; test: Arterial diameter recordings (constriction) in pressurized cerebral arteries; type: cell-based; conditions: for change in lumen diameter: Ca2+ returned to superfusate in the presence of UTP and nimodipine; for decrease of resting diameter: extracellular KCl raised from 5 mM to 60 mM; for myogenic tone: intravascular pressure increased from 20 to 80 mm Hg
From the text: Oligodeoxynucleotide Sequences and Reverse Permeabilization. TRPC6 sense and antisense oligodeoxynucleotides (ODN's) were designed as previously described (Welsh et al 2002 Circ Res 90, 248-250) and were as follows: sense, 5′-[…]-3′ (SEQ ID: 3) and 5′-GCACACGCAGCCTCTTCAC-3′ (SEQ ID: 4) antisense, 5′-[…]-3′ (SEQ ID: 5) and 5′-[…]-3′ (SEQ ID: 6). TRPC3 sense and antisense ODN's were designed based on the rat TRPC3 gene (Ohki et al 2000 J Biol Chem 275: 39055-39060) and are as follows: sense, 5′-[…]-3′ (SEQ ID: 7) and 5′-[…]-3′ (SEQ ID: 8); anti-sense, 5′-[…]-3′ (SEQ ID: 9) and 5′-[…]-3′ (SEQ ID: 10). The last five bases on the 5′ and 3′ end were phosphorothioated in order to limit ODN degradation. For some experiments fluoroscein-isothiocyanate was conjugated to the 5′ end to allow for histological assessment of cellular uptake of the ODNs. All ODNs were synthesized and HPLC purified commercially by Qiagen (Alameda, Calif., USA). Sense and antisense ODN's (2 μM) were introduced into the arterial SMs using a reversible permeabilization procedure (Lesh et al 1995 Circ Res 77,220-230)). The arterial segments were then organ cultured for 3 days in D-MEM/F-12 culture media with L-glutamine (2 mM), penicillin (50 units/ml) and streptomycin (50 μg/ml) prior to use.
Diameter and membrane potential recordings. Endothelial cell denuded artery segments were mounted on glass pipettes in an arteriograph chamber (Living Systems, Burlington, Vt., USA), pressurized to 20 mmHg (with no flow), and superfused with warm (37° C.), gassed (95% 02/5% CO2) physiological saline solution (PSS) containing (in mM): 119 NaCl, 4.7 KCl, 24 NaHCO3, 0.2 KH2PO4, […], 1.2 MgSO4, 1.6 CaCl2, and 10.6 glucose, pH 7.4. In experiments using Ca^2+-free PSS, CaCl2 was omitted and 3 mM EGTA and 30 μM diltiazem added. In experiments with diacylglycerol induction, 300 μM of the diacylglycerol analogue OAG (1-oleyol-2-acetyl-sn-glycerol) was added. The endothelium was removed as previously described (Sun et al 1993 Endothelium 1, 115-122). To verify endothelial cell removal the arteries were pressurized to 60 mmHg and allowed to develop myogenic tone prior to exposing the vessels to 1 μM UTP. Absence of a dilation or biphasic constrictor response to 1 μM UTP indicated successful endothelial cell removal (Marelli 2001 Am J Physiol Heart Cir Physiol 281, H1759-H1766; Miyagi et al 1996 Br J Pharmacol 118, 847-856). […] Membrane potential was measured by inserting a sharp glass electrode (≈100 MΩ resistance) containing 0.5M KCl into the vessel wall. The criteria for successful vascular smooth muscle cell impalement were: (1) a sharp negative Vm deflection on entry; (2) a stable potential for at least 1 minute after entry; and (3) a sharp positive Vm deflection upon removal. Measurements were made using an electrometer (World Precision Instruments) and the data were recorded via computer using Axotape and Dataq software. Arterial diameter was measured using a video dimension analyzer (IonOptix Corporation; Milton, Mass.).
Statistical analysis. Data are expressed as means±SEM, and n indicates the number of animals. Changes in arterial diameter were measured as a percent constriction calculated as follows: [formula]

[4] = 1 μM UTP, paired arteries, original recordings (FIG. 7A)

5′-GAGAACCATGAACTGGAATA-3′ (SEQ ID: 9) and 5′-ACGACCAACACGACCAGACA-3′ (SEQ ID: 10) (phosphorothioate ends, further chemistry not given here) [TRPC3 antisense, antisense ODNs based on the rat TRPC3 gene; last five bases on the 5′ and 3′ end phosphorothioated]
SMCs in which the response to UTP was absent [1]: 3 of 5
SMCs in which the response to UTP was greatly suppressed [1]: 2 of 5
effect on the expression of TRPC6 [2]: no effect
generalized inhibitory effect on arterial contractility [3]: no generalized inhibitory effect
constriction [3, 4]: 30%
constriction ([3]; 300 μM OAG): 1±1%
reduction of UTP-induced constriction compared with sense-treated arteries ([3]; 10^−5 M UTP): 37%
reduction of UTP-induced constriction compared with sense-treated arteries ([3]; 10^−6 M UTP): approximately 61%
change in lumen diameter [3]: −85±17 μm
decrease of resting diameter [3]: 57±9%
myogenic tone [3]: 27±5%
constrictions versus sense treated arteries ([3]; low concentration of UTP (0.1 to 1.0 μM)): significantly less

5′-TATTCCAGTTCATGGTTCTC-3′ (SEQ ID: 7) and 5′-TGTCTGGTCGTGTTGGTCGT-3′ (SEQ ID: 8) (phosphorothioate ends, further chemistry not given here) [TRPC3 sense, sense control ODNs based on the rat TRPC3 gene; end bases phosphorothioated]
cells with UTP-activated whole cell current ([1]; voltage ramps −120 mV to 20 mV): 8 of 9
constriction [3, 4]: 38%
constriction ([3]; 300 μM OAG): 17±3%
change in lumen diameter [3]: −128±8 μm
decrease of resting diameter [3]: 58±12%
myogenic tone [3]: 26±4%
